The results in this text go back to patent publication US20240158446A1, “CYCLIC COMPOUND HAVING SELECTIVE INHIBITORY ACTION ON KRAS OVER HRAS AND NRAS” (CHUGAI SEIYAKU KABUSHIKI KAISHA, priority 2021, published 2024).

*1 amine or outer side, *2 acyl side, *3 side chain or, on linkers, in order; H or OH if unused. Where a SMILES comes first, the peptide text is derived from it. Bridges are numbered along the chain shown (N, C = ends). [ ]: non-standard residue; d: D form. The star is where a group is joined. X22 = O=C([C@H](Cc1ccc(C(F)(F)F)cc1)N(CC1CCCC1)[*:1])[*:2]; hPhe(3-Cl-4-CF3) = N[C@@H](CCc1ccc(C(F)(F)F)c(Cl)c1)C(=O)O; X37 = O=C([C@H](Cc1ccc(C(F)(F)F)cc1)N(CC1CCC1)[*:1])[*:2]; X40 = CC(C)CN([C@@H](Cc1ccc(C(F)(F)F)cc1)C(=O)[*:2])[*:1]; X23 = C=CCCN([C@@H](Cc1ccc(C(F)(F)F)cc1)C(=O)[*:2])[*:1]; X27 = O=C([C@H](Cc1ccc(C(F)(F)F)cc1)N(CC1CC1)[*:1])[*:2]; X17 = CCCCN([C@@H](Cc1ccc(C(F)(F)F)cc1)C(=O)[*:2])[*:1]; X38 = C#CCN([C@@H](Cc1ccc(C(F)(F)F)cc1)C(=O)[*:2])[*:1]; X5 = C=CCN([C@@H](Cc1ccc(C(F)(F)F)cc1)C(=O)[*:2])[*:1]; X28 = COCCCN([C@@H](Cc1ccc(C)cc1)C(=O)[*:2])[*:1]; NMeGly(cPent) = CN[C@H](C(=O)O)C1CCCC1; NMeD = CN[C@@H](CC(=O)O)C(=O)O; NMeL = CN[C@@H](CC(C)C)C(=O)O; Morpholide = C1CN(*)CCO1; NMeA = CN[C@@H](C)C(=O)O; Ac5c = NC1(C(=O)O)CCCC1; Aze = O=C(O)[C@@H]1CCN1; Sar = CNCC(=O)O

For test [1], the target named is GDP-bound KRAS wild-type protein (Homo sapiens, UniProt P01116). Kind of test: Binding to KRAS by surface plasmon resonance (SPR), Single Cycle Kinetics. As to conditions: SPR Single Cycle Kinetics, GDP-bound KRAS wild-type protein, 1:1 binding model; read-out: KRAS KD. (In general: In SPR one partner is held on a chip, and binding of the other changes the refractive index at the surface.)
GDP-bound KRAS wild-type protein, sequence (P01116 whole entry): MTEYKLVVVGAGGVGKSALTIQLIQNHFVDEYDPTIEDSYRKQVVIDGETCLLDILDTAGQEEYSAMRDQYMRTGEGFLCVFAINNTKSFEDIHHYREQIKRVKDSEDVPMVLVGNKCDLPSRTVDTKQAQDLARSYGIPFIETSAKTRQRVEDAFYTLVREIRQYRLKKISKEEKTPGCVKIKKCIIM

For test [2], the target named is GDP-bound NRAS wild-type protein (Homo sapiens, UniProt P01111). The test is described as follows: Binding to NRAS by surface plasmon resonance (SPR), Single Cycle Kinetics. As to conditions: SPR, GDP-bound NRAS wild-type protein vs GDP-bound KRAS wild-type protein.
GDP-bound NRAS wild-type protein, sequence (P01111 whole entry): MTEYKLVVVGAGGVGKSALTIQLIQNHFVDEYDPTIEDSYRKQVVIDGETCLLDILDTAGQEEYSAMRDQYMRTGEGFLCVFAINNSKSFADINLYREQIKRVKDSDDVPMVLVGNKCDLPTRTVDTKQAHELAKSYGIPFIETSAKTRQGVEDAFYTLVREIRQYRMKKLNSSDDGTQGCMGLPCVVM
Test [3] addresses GDP-bound HRAS wild-type protein (Homo sapiens, UniProt P01112). Kind of test: Binding to HRAS by surface plasmon resonance (SPR), Single Cycle Kinetics. As to conditions: SPR, GDP-bound HRAS wild-type protein vs GDP-bound KRAS wild-type protein.

GDP-bound HRAS wild-type protein, sequence (P01112 whole entry): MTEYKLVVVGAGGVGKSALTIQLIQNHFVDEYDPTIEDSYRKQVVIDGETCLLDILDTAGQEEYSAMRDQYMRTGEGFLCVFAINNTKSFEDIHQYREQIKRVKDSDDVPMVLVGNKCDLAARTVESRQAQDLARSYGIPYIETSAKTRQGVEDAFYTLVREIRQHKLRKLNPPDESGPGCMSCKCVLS

By Kd is commonly meant the constant that tells how readily two partners part at equilibrium. For the molecule `CC[C@H](C)[C@@H]1NC(=O)[C@H](CC(C)C)N(C)C(=O)C[C@@H](C(=O)N2CCOCC2)N(C)C(=O)[C@H](C2CCCC2)N(C)C(=O)C2(CCCC2)NC(=O)[C@@H]2CCCN2C(=O)[C@H](CCc2ccc(C(F)(F)F)c(Cl)c2)NC(=O)CN(C)C(=O)[C@H](Cc2ccc(C)cc2)N(CCCOC)C(=O)CN(C)C(=O)CN(C)C1=O` [PP0105] ([NMeL]I[Sar][Sar][X28][Sar][hPhe(3-Cl-4-CF3)]P[Ac5c][NMeGly(cPent)][NMeD]-Morpholide; lactam N-11), in test [1], the Kd came out at 0.14 nM. The “NRAS/KRAS (ratio of KD value for NRAS to KD value for KRAS)” value in test [2] was “B (a compound having 3 or more and less than 10 is denoted as B)”. Besides, the “HRAS/KRAS (ratio of KD value for HRAS to KD value for KRAS)” value in test [3] is “C (A compound having a KD ratio of 0.1 or more and less than 3 is denoted as C)”.

Regarding `CCCCN1C(=O)[C@@H]2CCN2C(=O)[C@H](C)N(C)C(=O)[C@H]([C@@H](C)CC)NC(=O)[C@H](CC(C)C)N(C)C(=O)C[C@@H](C(=O)N2CCOCC2)N(C)C(=O)[C@H](C2CCCC2)N(C)C(=O)C2(CCCC2)NC(=O)[C@@H]2CCCN2C(=O)[C@H](CCc2ccc(C(F)(F)F)c(Cl)c2)NC(=O)CN(C)C(=O)[C@@H]1Cc1ccc(C(F)(F)F)cc1` [PP0106] ([NMeL]I[NMeA][Aze][X17][Sar][hPhe(3-Cl-4-CF3)]P[Ac5c][NMeGly(cPent)][NMeD]-Morpholide; lactam N-11), the dissociation constant Kd in test [1] stood at 0.19 nM. In addition, the “NRAS/KRAS (ratio of KD value for NRAS to KD value for KRAS)” value in test [2] is “C (A compound having a KD ratio of 0.1 or more and less than 3 is denoted as C)”. In test [3], the “HRAS/KRAS (ratio of KD value for HRAS to KD value for KRAS)” value is “B (a compound having 3 or more and less than 10 is denoted as B)”.

Consider `CC[C@H](C)[C@@H]1NC(=O)[C@H](CC(C)C)N(C)C(=O)C[C@@H](C(=O)N2CCOCC2)N(C)C(=O)[C@H](C2CCCC2)N(C)C(=O)C2(CCCC2)NC(=O)[C@@H]2CCCN2C(=O)[C@H](CCc2ccc(C(F)(F)F)c(Cl)c2)NC(=O)CN(C)C(=O)[C@H](Cc2ccc(C(F)(F)F)cc2)N(CC(C)C)C(=O)[C@@H]2CCN2C(=O)[C@H](C)N(C)C1=O` [PP0107] ([NMeL]I[NMeA][Aze][X40][Sar][hPhe(3-Cl-4-CF3)]P[Ac5c][NMeGly(cPent)][NMeD]-Morpholide; lactam N-11), for which the Kd in test [1] was 1.7 nM. The “NRAS/KRAS (ratio of KD value for NRAS to KD value for KRAS)” value in test [2] is “C (A compound having a KD ratio of 0.1 or more and less than 3 is denoted as C)”. In addition, the “HRAS/KRAS (ratio of KD value for HRAS to KD value for KRAS)” value in test [3] is “C (A compound having a KD ratio of 0.1 or more and less than 3 is denoted as C)”.

`CC[C@H](C)[C@@H]1NC(=O)[C@H](CC(C)C)N(C)C(=O)C[C@@H](C(=O)N2CCOCC2)N(C)C(=O)[C@H](C2CCCC2)N(C)C(=O)C2(CCCC2)NC(=O)[C@@H]2CCCN2C(=O)[C@H](CCc2ccc(C(F)(F)F)c(Cl)c2)NC(=O)CN(C)C(=O)[C@H](Cc2ccc(C(F)(F)F)cc2)N(CC2CC2)C(=O)[C@@H]2CCN2C(=O)[C@H](C)N(C)C1=O` [PP0108] ([NMeL]I[NMeA][Aze][X27][Sar][hPhe(3-Cl-4-CF3)]P[Ac5c][NMeGly(cPent)][NMeD]-Morpholide; lactam N-11): the Kd in test [1] turned out to be 0.2 nM. The “NRAS/KRAS (ratio of KD value for NRAS to KD value for KRAS)” value in test [2] is “C (A compound having a KD ratio of 0.1 or more and less than 3 is denoted as C)”. The “HRAS/KRAS (ratio of KD value for HRAS to KD value for KRAS)” value in test [3] is “C (A compound having a KD ratio of 0.1 or more and less than 3 is denoted as C)”.

Take `CC[C@H](C)[C@@H]1NC(=O)[C@H](CC(C)C)N(C)C(=O)C[C@@H](C(=O)N2CCOCC2)N(C)C(=O)[C@H](C2CCCC2)N(C)C(=O)C2(CCCC2)NC(=O)[C@@H]2CCCN2C(=O)[C@H](CCc2ccc(C(F)(F)F)c(Cl)c2)NC(=O)CN(C)C(=O)[C@H](Cc2ccc(C(F)(F)F)cc2)N(CC2CCC2)C(=O)[C@@H]2CCN2C(=O)[C@H](C)N(C)C1=O` [PP0109] ([NMeL]I[NMeA][Aze][X37][Sar][hPhe(3-Cl-4-CF3)]P[Ac5c][NMeGly(cPent)][NMeD]-Morpholide; lactam N-11): in test [1], the Kd was found to be 1.3 nM. In addition, the “NRAS/KRAS (ratio of KD value for NRAS to KD value for KRAS)” value in test [2] is “C (A compound having a KD ratio of 0.1 or more and less than 3 is denoted as C)”. In addition, the “HRAS/KRAS (ratio of KD value for HRAS to KD value for KRAS)” value in test [3] is “B (a compound having 3 or more and less than 10 is denoted as B)”.

Consider `CC[C@H](C)[C@@H]1NC(=O)[C@H](CC(C)C)N(C)C(=O)C[C@@H](C(=O)N2CCOCC2)N(C)C(=O)[C@H](C2CCCC2)N(C)C(=O)C2(CCCC2)NC(=O)[C@@H]2CCCN2C(=O)[C@H](CCc2ccc(C(F)(F)F)c(Cl)c2)NC(=O)CN(C)C(=O)[C@H](Cc2ccc(C(F)(F)F)cc2)N(CC2CCCC2)C(=O)[C@@H]2CCN2C(=O)[C@H](C)N(C)C1=O` [PP0110] ([NMeL]I[NMeA][Aze][X22][Sar][hPhe(3-Cl-4-CF3)]P[Ac5c][NMeGly(cPent)][NMeD]-Morpholide; lactam N-11), for which the Kd in test [1] is 4 nM. In addition, the “NRAS/KRAS (ratio of KD value for NRAS to KD value for KRAS)” value in test [2] was “C (A compound having a KD ratio of 0.1 or more and less than 3 is denoted as C)”. Also, in test [3], the “HRAS/KRAS (ratio of KD value for HRAS to KD value for KRAS)” value is “B (a compound having 3 or more and less than 10 is denoted as B)”.

In the case of `C=CCN1C(=O)[C@@H]2CCN2C(=O)[C@H](C)N(C)C(=O)[C@H]([C@@H](C)CC)NC(=O)[C@H](CC(C)C)N(C)C(=O)C[C@@H](C(=O)N2CCOCC2)N(C)C(=O)[C@H](C2CCCC2)N(C)C(=O)C2(CCCC2)NC(=O)[C@@H]2CCCN2C(=O)[C@H](CCc2ccc(C(F)(F)F)c(Cl)c2)NC(=O)CN(C)C(=O)[C@@H]1Cc1ccc(C(F)(F)F)cc1` [PP0114] ([NMeL]I[NMeA][Aze][X5][Sar][hPhe(3-Cl-4-CF3)]P[Ac5c][NMeGly(cPent)][NMeD]-Morpholide; lactam N-11), the Kd in test [1] came out at 0.16 nM. Also, the “NRAS/KRAS (ratio of KD value for NRAS to KD value for KRAS)” value in test [2] is “C (A compound having a KD ratio of 0.1 or more and less than 3 is denoted as C)”. Also, the “HRAS/KRAS (ratio of KD value for HRAS to KD value for KRAS)” value in test [3] is “C (A compound having a KD ratio of 0.1 or more and less than 3 is denoted as C)”.

As to `C=CCCN1C(=O)[C@@H]2CCN2C(=O)[C@H](C)N(C)C(=O)[C@H]([C@@H](C)CC)NC(=O)[C@H](CC(C)C)N(C)C(=O)C[C@@H](C(=O)N2CCOCC2)N(C)C(=O)[C@H](C2CCCC2)N(C)C(=O)C2(CCCC2)NC(=O)[C@@H]2CCCN2C(=O)[C@H](CCc2ccc(C(F)(F)F)c(Cl)c2)NC(=O)CN(C)C(=O)[C@@H]1Cc1ccc(C(F)(F)F)cc1` [PP0115] ([NMeL]I[NMeA][Aze][X23][Sar][hPhe(3-Cl-4-CF3)]P[Ac5c][NMeGly(cPent)][NMeD]-Morpholide; lactam N-11), the Kd in test [1] was determined as 0.21 nM. For the same molecule, in test [2], the “NRAS/KRAS (ratio of KD value for NRAS to KD value for KRAS)” value is “C (A compound having a KD ratio of 0.1 or more and less than 3 is denoted as C)”. The “HRAS/KRAS (ratio of KD value for HRAS to KD value for KRAS)” value in test [3] was “C (A compound having a KD ratio of 0.1 or more and less than 3 is denoted as C)”.

In the case of `C#CCN1C(=O)[C@@H]2CCN2C(=O)[C@H](C)N(C)C(=O)[C@H]([C@@H](C)CC)NC(=O)[C@H](CC(C)C)N(C)C(=O)C[C@@H](C(=O)N2CCOCC2)N(C)C(=O)[C@H](C2CCCC2)N(C)C(=O)C2(CCCC2)NC(=O)[C@@H]2CCCN2C(=O)[C@H](CCc2ccc(C(F)(F)F)c(Cl)c2)NC(=O)CN(C)C(=O)[C@@H]1Cc1ccc(C(F)(F)F)cc1` [PP0116] ([NMeL]I[NMeA][Aze][X38][Sar][hPhe(3-Cl-4-CF3)]P[Ac5c][NMeGly(cPent)][NMeD]-Morpholide; lactam N-11), in test [1], the Kd was found to be 0.27 nM. The “NRAS/KRAS (ratio of KD value for NRAS to KD value for KRAS)” value in test [2] was “C (A compound having a KD ratio of 0.1 or more and less than 3 is denoted as C)”. Besides, in test [3], the “HRAS/KRAS (ratio of KD value for HRAS to KD value for KRAS)” value is “C (A compound having a KD ratio of 0.1 or more and less than 3 is denoted as C)”.
